Reference: ChEMBL document CHEMBL3430912, “GSK Tres Cantos Anti-Kinetoplastid Screening (TCAKS) Data”

Columns and labels:
Leishmania donovani [1] = experiment: GSK_TCAKS: pIC50 Leishmania donovani Imaging: Amastigotes/Macrophages. Assay plates (384-well) were prepared by adding 250nL of compound to each well. For single shot assay, the final compound concentration was 5 uM. […] Automated image analysis was performed with a script developed on Acapella High Content Imaging and Analysis Software (PerkinElmer). Output: Average number of amastigotes per macrophage cell were reported for each well.; assay type: functional, organism-based, Homo sapiens; conditions: THP-1
[2] = system: Trypanosoma brucei brucei; experiment: GSK_TCAKS: pIC50 Trypanosoma brucei viability assay using fluorescence intensity. Assay plates (1536-well) were prepared by dispensing 25nL of compound solution per well using an Echo acoustic dispenser (Labcyte).; assay type: functional, organism-based; conditions: Lister 427, 2 h
Trypanosoma cruzi [3] = experiment: GSK_TCAKS: pIC50 Trypanosoma cruzi Imaging: Amastigotes/Cell. […] Cells were then washed once with PBS before infection. T. cruzi trypomastigotes, collected at days 5 to 8 after infection from LLC-MK2 parasite infected cultures, were allowed to swim out for 4h at 37C from a centrifuged pellet (2,500 rpm/10 min/room temperature). Trypomastigotes were then collected and counted in a CASY Cell Counter. Trypomastigotes, in supplemented DMEM, were added to H9c2 cultures in a multiplicity of infection of 1 and incubated for 18 h. Cells were washed once with PBS before incubation of the infected H9c2 monolayer with trypsin (Life-Technologies) to detach cells from the flask. Cells were counted in a CASY Cell Counter using a 150 um capillary and their density set at 5 * 10^4 cells per mL in supplemented assay DMEM. Infected H9c2 were dispensed into 384-well poly-lysine coated assay plates at 50uL per well using a Multidrop Combi dispenser. After seeding them, the plates were incubated at 37C, 5% CO2 for 72h. Cultures were then fixed and stained by addition of 50 uL of a solution containing 8% formaldehyde and 4 uM DRAQ5 DNA dye (BioStatus, UK) per well. […] Five images were collected per well for reliable statistical analysis. Automated image analysis was performed with a script developed on Acapella High Content Imaging and Analysis Software (PerkinElmer). Output: number of amastigotes per cell as infection level measurement.; assay type: functional, organism-based, Rattus norvegicus; conditions: H9c2, 4 h
Trypanosoma cruzi [4] = experiment: (§1) GSK_TCAKS: pIC50 Trypanosoma cruzi Imaging: Infected Cells. […] Cells were then washed once with PBS before infection. T. cruzi trypomastigotes, collected at days 5 to 8 after infection from LLC-MK2 parasite infected cultures, were allowed to swim out for 4h at 37C from a centrifuged pellet (2,500 rpm/10 min/room temperature). Trypomastigotes were then collected and counted in a CASY Cell Counter. Trypomastigotes, in supplemented DMEM, were added to H9c2 cultures in a multiplicity of infection of 1 and incubated for 18 h. Cells were washed once with PBS before incubation of the infected H9c2 monolayer with trypsin (Life-Technologies) to detach cells from the flask. Cells were counted in a CASY Cell Counter using a 150 um capillary and their density set at 5 * 10^4 cells per mL in supplemented assay DMEM. Infected H9c2 were dispensed into 384-well poly-lysine coated assay plates at 50uL per well using a Multidrop Combi dispenser. After seeding them, the plates were incubated at 37C, 5% CO2 for 72h. Cultures were then fixed and stained by addition of 50 uL of a solution containing 8% formaldehyde and 4 uM DRAQ5 DNA dye (BioStatus, UK) per well. […] Five images were collected per well for reliable statistical analysis. Automated image analysis was performed with a script developed on Acapella High Content Imaging and Analysis Software (PerkinElmer). Output: percentage of infected cells per well as a second infection marker.; assay type: functional, organism-based, Rattus norvegicus; conditions: H9c2, 4 h
Trypanosoma cruzi [5] = experiment: GSK_TCAKS: pIC50 Trypanosoma cruzi viability assay using beta-GAL activity. This assay was run at single shot at 5uM compound concentration per well. The biological reagents consisted of NIH-3T3 host cells and trypomastigotes parasitic cells; both cell types were set to a 3.3 * 10^5 cells/mL dilution in assay DMEM by means of a CASY cell counter device using a 60um capillary. 6 uL of the mixture were dispensed per well (about 1 * 10^3 host-cells and 1 * 10^3 parasites) with a Multidrop Combi dispenser. […] In all wells, the percentage of DMSO never exceeded 0.5%. Plates incubated for four days at 37C, 5% CO2. The substrate used for the assay fluorescence intensity (FLINT) readout was resorufin-beta-D-galactopiranoside (Sigma-Aldrich) at 5uM per well. It was diluted in PBS supplemented with the soft detergent Igepal (Fluka).; assay type: functional, organism-based, Mus musculus; conditions: Tulahuen, NIH3T3
Leishmania donovani [6] = experiment: GSK_TCAKS: pIC50 Leishmania donovani Imaging: Infected Macrophages. Assay plates (384-well) were prepared by adding 250nL of compound to each well. For single shot assay, the final compound concentration was 5 uM. […] Automated image analysis was performed with a script developed on Acapella High Content Imaging and Analysis Software (PerkinElmer). Output: Percent of infected macrophage cells were reported for each well.; assay type: functional, organism-based, Homo sapiens; conditions: THP-1
[7] = system: Trypanosoma brucei brucei; experiment: GSK_TCAKS: pIC50 Trypanosoma brucei viability assay using luminiscence. Assay plates (1536-well) were prepared. T. brucei cultures were harvested and counted in a CASY cell counter. A parasite suspension was prepared at a final concentration of 5 * 10^4 cells/mL in complete HMI9 medium and 6uL was dispensed to all wells containing compounds using a Multidrop Combi dispenser. 6uL of HMI9 media with 0.4% DMSO were dispensed to control columns. Plates were incubated for 24 h at 37C, 5% CO2 then tempered for 10 min at room temperature. ATP content was quantified by adding 4 uL of CellTiter-Glo Reagent (Promega) according to the manufacturer's instructions. Luminescence was measured using a ViewLux.; assay type: functional, organism-based; conditions: Lister 427, CASY
Leishmania donovani [8] = experiment: GSK_TCAKS: pIC50 Leishmania donovani Imaging: THP-1 Host Macrophages. Assay plates (384-well) were prepared by adding 250nL of compound to each well. For single shot assay, the final compound concentration was 5 uM. […] Automated image analysis was performed with a script developed on Acapella High Content Imaging and Analysis Software (PerkinElmer). Output: THP-1 cell count were reported for each well.; assay type: functional, organism-based, Homo sapiens
Trypanosoma cruzi [9] = experiment: as §1, with “H2C9” for “Trypanosoma cruzi”, “H9c2 Host Cardiomyocytes.” for “Infected Cells.”, “Number” for “percentage”, “H9c2 Host Cardiomyocytes nuclei to determine drug-related cytotoxicity.” for “infected cells per well as a second infection marker.”; assay type: functional, organism-based, Rattus norvegicus; conditions: H9c2, 4 h
NIH3T3 = experiment: GSK_TCAKS: pIC50 NIH 3T3 cell line viability assay using luminiscence. Tissue culture surface treated assay plates (1536-well) were used. […] The 100% cells survival control was determined exposing the host-cells to a 0.5% DMSO concentration, whereas the 100% toxicity control was achieved by seeding the cells in presence of Amphotericin B at 50uM. Plates were incubated for four days at 37C, 5% CO2. The assay readout was developed by addition of 5uL of CellTiter-Glo Reagent following the manufacturer's instructions. Luminiscence was measured using a ViewLux.; assay type: functional, cell-based; conditions: Mus musculus, NIH3T3, 96 h
Leishmania donovani [10] = experiment: GSK_TCAKS: pIC50 Leishmania donovani viability assay using fluorescence intensity. Assay plates (1536-well) were prepared by adding 30nL per well of compound. For single shot assay, the final compound concentration was 5uM. […] Briefly, eGFP LdBOB axenic amastigotes were harvested, fixed and counted in a CASY cell counter (Roche-Applied Science). A final concentration of 1.5 * 10^5 cells per well were prepared in amastigote media containing 500 U/mL penicillin/streptomycin (Invitrogen) and 6uL was dispensed to each experimental well using a Multidrop Combi dispenser (Thermo Scientific). 6uL of assay media was dispensed to control columns used as reference for 100% compound response. Following incubation for 72 h at 37C, 5% CO2, 2 uL of resazurin was added to each well at a final concentration of 0.5 mM in phosphate buffered saline (PBS) with IGEPAL (Sigma-Aldrich), 0.05% (v/v).; assay type: functional, organism-based
[11] = GSK_TCAKS: pIC50 HepG2 human cell line viability assay using luminiscence. […] Seeding density was checked to ensure that new mono-layers were not more than 50% confluent at the time of harvesting. Cell suspension was added to 500 mL of the same medium at a final density of 1.2 * 10^5 cells/mL. This cell suspension was dispensed (25 uL, 3000 cells per well) into 384-well clear-bottom plates using a Multidrop Combi dispenser. Prior to addition of the cell suspension, the screening compounds (250 nL) were pre-dispensed into the plates with an Echo liquid handler. Plates were incubated for 48 h at 37C, 5% CO2. After incubation, plates equilibrated at room temperature for 30 min before proceeding to develop the luminescent signal. The signal developer, CellTiter-Glo Reagent, was allowed to equilibrate at room temperature for 30 min and added to the plates (25uL per well) using a Multidrop Combi dispenser. Plates were left for 10 min at room temperature for stabilization and then read using a ViewLux.; assay type: toxicity, cell-based
[12] = target: Sterol 14-alpha demethylase (Trypanosoma cruzi (strain CL Brener), UniProt Q7Z1V1); experiment: GSK_TCAKS: pIC50 CYP51 from Trypanosoma cruzi.; assay type: functional
Chain of Sterol 14-alpha demethylase (Q7Z1V1 whole entry): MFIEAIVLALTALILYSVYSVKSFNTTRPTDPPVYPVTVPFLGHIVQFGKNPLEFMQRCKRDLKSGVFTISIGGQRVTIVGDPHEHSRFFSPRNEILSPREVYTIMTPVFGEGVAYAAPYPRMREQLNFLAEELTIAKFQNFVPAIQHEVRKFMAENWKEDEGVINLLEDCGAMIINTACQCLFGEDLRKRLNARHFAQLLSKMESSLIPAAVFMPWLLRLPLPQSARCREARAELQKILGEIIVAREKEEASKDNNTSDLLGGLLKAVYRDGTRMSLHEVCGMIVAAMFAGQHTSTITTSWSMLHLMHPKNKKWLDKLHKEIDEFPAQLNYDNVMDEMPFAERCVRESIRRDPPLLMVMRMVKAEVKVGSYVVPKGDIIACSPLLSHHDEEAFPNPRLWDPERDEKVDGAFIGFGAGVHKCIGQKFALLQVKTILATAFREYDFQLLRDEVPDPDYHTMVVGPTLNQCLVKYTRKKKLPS

Compound	IC50 (Leishmania donovani [1])	IC50 [2]	IC50 (Trypanosoma cruzi [3])	IC50 (Trypanosoma cruzi [4])	IC50 (Trypanosoma cruzi [5])	IC50 (Leishmania donovani [6])	IC50 [7]	IC50 (Leishmania donovani [8])	IC50 (Trypanosoma cruzi [9])	IC50 (NIH3T3)	IC50 (Leishmania donovani [10])	IC50 at 48 h [11]	IC50 [12]
O=S(=O)(NCC(c1cccnc1)N1CCN(c2ccc(F)cc2)CC1)c1cccs1 (stereo not given)	> 50.1 µM	> 39.8 µM	0.126 µM	0.126 µM	0.158 µM	> 50.1 µM	> 39.8 µM	> 50.1 µM	> 50.1 µM	> 50.1 µM	> 50.1 µM	> 100 µM	0.0398 µM
CC(CNS(=O)(=O)c1ccc(OC(F)F)cc1)c1ccc(NC(=O)c2ccncc2)cc1 (stereo not given)	5.01 µM	7.94 µM	0.0794 µM	0.1 µM	0.2 µM	> 50.1 µM	20 µM	15.8 µM	> 50.1 µM	> 50.1 µM	> 50.1 µM	100 µM	0.0501 µM
Cn1cc(CN2CCN(c3ccc4c(c3)CCN(C(=O)[C@H]3C[C@@H]3c3ccccc3)CC4)CC2)cn1	1 µM	25.1 µM	0.794 µM	3.16 µM	1.58 µM	31.6 µM	39.8 µM	6.31 µM	31.6 µM	20 µM	0.631 µM	50.1 µM	15.8 µM
Cc1ccc(S(=O)(=O)Cn2nnnc2C(c2cccnc2)N2CCN(c3ccccc3)CC2)cc1 (stereo not given)	> 50.1 µM	31.6 µM	0.316 µM	0.316 µM	0.501 µM	> 50.1 µM	> 39.8 µM	> 50.1 µM	> 50.1 µM	31.6 µM	1 µM	> 100 µM	0.2 µM
Cc1cc(C#N)c([N+](=O)[O-])cc1Br	31.6 µM	0.794 µM	0.0501 µM	0.316 µM	0.2 µM	39.8 µM	3.98 µM	25.1 µM	50.1 µM	20 µM	25.1 µM	31.6 µM	7.94 µM
CC(C(=O)Nc1ccc(Br)cc1)N1CCN(c2ccc([N+](=O)[O-])cc2)CC1 (stereo not given)	> 50.1 µM	> 39.8 µM	3.16 µM	2.51 µM	2.51 µM	> 50.1 µM	> 39.8 µM	> 50.1 µM	> 50.1 µM	> 50.1 µM	> 50.1 µM	> 100 µM	39.8 µM
Cc1cc2ncn(-c3ccc([N+](=O)[O-])cc3C#N)c2cc1C	> 50.1 µM	20 µM	0.794 µM	2 µM	1.26 µM	> 50.1 µM	> 39.8 µM	> 50.1 µM	> 50.1 µM	> 50.1 µM	> 50.1 µM	> 100 µM	> 100 µM
O=C(CN(c1cccc(C(F)(F)F)c1)S(=O)(=O)c1ccc(Cl)cc1)NCc1ccc(F)c(F)c1	> 50.1 µM	10 µM	0.501 µM	0.794 µM	0.794 µM	> 50.1 µM	25.1 µM	20 µM	> 50.1 µM	31.6 µM	> 50.1 µM	> 100 µM	0.158 µM
COc1ccc(S(=O)(=O)NCc2ccc(-c3ccc(CN(C)CCO)cc3)cc2)cc1	20 µM	3.16 µM	1.26 µM	2.51 µM	0.0398 µM	15.8 µM	3.16 µM	20 µM	> 50.1 µM	15.8 µM	> 50.1 µM	50.1 µM	15.8 µM
CCCN1CCN(Cc2ccc(S(=O)(=O)Nc3cccc(C)c3)cc2)CC1	> 50.1 µM	25.1 µM	0.631 µM	0.794 µM	0.794 µM	> 50.1 µM	> 39.8 µM	> 50.1 µM	> 50.1 µM	25.1 µM	25.1 µM	> 100 µM	> 100 µM
